Source: PubChem BioAssay (NCI)
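Cells were grown in 96-well plates and exposed to each compound for 48 hours at five concentrations; endpoints were interpolated linearly between bracketing concentrations, or set to the highest concentration if not reached. TGI marks complete inhibition of growth.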

Experiments:
Assay in all cases: NCI tumour cell line growth inhibition, 48 h
HL-60(TB) leukemia = test system: HL-60(TB) leukemia
OVCAR-4 ovarian = test system: OVCAR-4 ovarian
MDA-N = test system: MDA-N
OVCAR-5 ovarian = test system: OVCAR-5 ovarian
SR leukemia = test system: SR leukemia
IGROV1 ovarian = test system: IGROV1 ovarian
CAKI-1 renal = test system: CAKI-1 renal
EKVX NSCLC = test system: EKVX NSCLC
RXF 393 renal = test system: RXF 393 renal

Row | SMILES | TGI (HL-60(TB) leukemia) [µM] | TGI (OVCAR-4 ovarian) [µM] | TGI (MDA-N) [µM] | TGI (OVCAR-5 ovarian) [µM] | TGI (SR leukemia) [µM] | TGI (IGROV1 ovarian) [µM] | TGI (CAKI-1 renal) [µM] | TGI (EKVX NSCLC) [µM] | TGI (RXF 393 renal) [µM]
1 | OCCO/N=C1\C(c2c(O)[nH]c3ccccc23)=Nc2ccccc21 | > 100 | > 100 | > 100 | > 100 | > 100 | > 100 | > 100 | > 100 | > 100
2 | Cc1cccc(Nc2nn3c(=O)c4c5c(sc4nc3s2)CCCC5)c1 | > 100 | > 100 | > 100 | > 100 | > 100 | > 100 | > 100 |  | 62.8
3 | CCN(CC)N1C(=O)[N+](CC)(CC)N=C1[O-] | > 100 | > 100 | > 100 | > 100 | > 100 | > 100 | > 100 | > 100 | 
4 | O=c1cc(N2CCCC2)[nH]c(=O)n1Cc1ccccc1 | > 100 | > 100 |  | > 100 | > 100 | > 100 | > 100 | > 100 | 
5 | N#CC1(C#N)NC(c2cccs2)C(C#N)(C#N)NC1c1cccs1 (configuration not stated) | 41.3 | > 100 |  | 92.6 | 77.3 | > 100 | > 100 | > 100 | > 100
6 | COC(=O)C1CCC(=S)N1C(=O)c1ccccc1 (configuration not stated) |  | > 100 | > 100 | > 100 |  | > 100 | > 100 | > 100 | > 100
